This is an account of results in US4038287A, “Compounds of allantoin with basic amino acids” (Kawaken Fine Chemicals Co., Ltd., priority 1975, dated 1977).

Values after ≈ are worked out from the molar mass of the structure shown.

What all share (type): physicochemical
The nature of data set [1]: Solubility (wt.% at 20° C.) in water and alcohol-water solutions. The conditions noted are these: for solubility: water. An excerpt:
(§1) The solubility of pure allantoin at room temperature is 0.6 wt. % in water, 1.0 wt. % in glycerol and 0.3 wt. % in 50 vol. % aqueous solution of ethyl alcohol. In contrast, the solubilities of the compounds of the present invention in the aforementioned solvents are shown in Table I. It will be understood from Table I that all compounds of the present invention can be dissolved to make present in the solution much more allantoin than can be obtained by dissolving allantoin, per se.
Solubility (wt.% at 20° C.)

Data set [2] in a line: physchem.
Source text: as §1

Data set [3] can be described thus: Dissolved amount of allantoin component of the compounds. The following applies: 20° C.
Source text: as §1
Also, comparing the dissolved amount of the allantoin component of the compounds according to the present invention and that allantoin, per se, the former is about fifteen times greater than that of allantoin, per se, and the effects of allantoin are thereby improved.

The nature of data set [4]: pH of a saturated solution in water. The source says: Referring to the pH of a saturated solution obtained by dissolving the compounds of the present invention, respectively, in water, the solution pH of allantoin/arginine molecular compound was 8.5, that of allantoin/ornithine molecular compound was 9.0 and that of allantoin/lysine compound was 8.9. When the pH of the respective saturated solutions of compounds according to the invention was adjusted, with HCl solution, to the pH value of a saturated solution of pure allantoin in water, namely 5 to 6, and even though the saturated solutions of the compounds according to the invention contain a higher concentration of allantoin than that of a saturated solution of pure allantoin, no crystals of allantoin precipitated from the respective solutions of compounds according to the invention.

Turning to `NC(=O)NC1NC(=O)NC1=O` (stereo not shown) [Allantoin, allantoin], in data set [1], the “Solubility in 50% ethyl alcohol-water solution” value turned out to be 0.3 wt.%, the “Solubility in 50% isopropyl alcohol-water solution” value is reported as 0.1 wt.%, the “Solubility in 50% methyl alcohol-water solution” value amounted to 0.5 wt.% and the concentration in solution (solubility) was 6 mg/mL (≈ 37.9 mM). In data set [2], the “Solubility of pure allantoin in 50 vol. % aqueous solution of ethyl alcohol” value came out at 0.3 wt. % and the “Solubility of pure allantoin in glycerol” value is 1.0 wt. %. The solubility (usually the dissolved amount per volume that the medium holds) in data set [2] (water) stood at 6 mg/mL (≈ 37.9 mM).
`NC(=O)NC1NC(O)(NCCCCC(N)C(=O)O)NC1=O` (stereo not shown) [Allantoin/lysine compound (C)]: in data set [3], the “Dissolved amount of allantoin component, 50% ethyl alcohol-water solution” value stood at 5.0 wt.%; the “Dissolved amount of allantoin component, 50% isopropyl alcohol-water solution” value turned out to be 2.5 wt.%; the “Dissolved amount of allantoin component, 50% methyl alcohol-water solution” value came out at 11.3 wt.%; the “Dissolved amount of allantoin component, water” value was found to be 15.6 wt.%. Besides, the “pH of a saturated solution in water” value in data set [4] amounted to 8.9. Moreover, in data set [1], the “Solubility in 50% ethyl alcohol-water solution” value was found to be 9.6 wt.%, the “Solubility in 50% isopropyl alcohol-water solution” value came out at 4.8 wt.%, the “Solubility in 50% methyl alcohol-water solution” value is 21.7 wt.% and the concentration in solution (solubility) came to 300 mg/mL (≈ 986 mM).
`NC(=O)NC1NC(O)(NCCCC(N)C(=O)O)NC1=O` (stereo not shown) [Allantoin/ornithine compound (B)]: in data set [3], the “Dissolved amount of allantoin component, 50% ethyl alcohol-water solution” value is 6.7 wt.%; the “Dissolved amount of allantoin component, 50% isopropyl alcohol-water solution” value was 3.6 wt.%; the “Dissolved amount of allantoin component, 50% methyl alcohol-water solution” value is 14.3 wt.%; the “Dissolved amount of allantoin component, water” value was 22.1 wt.%. Besides, in data set [4], the “pH of a saturated solution in water” value is recorded as 9.0. Also, in data set [1], the “Solubility in 50% ethyl alcohol-water solution” value is on record as 12.3 wt.%, the “Solubility in 50% isopropyl alcohol-water solution” value was determined as 6.6 wt.%, the “Solubility in 50% methyl alcohol-water solution” value came to 26.2 wt.% and the solubility was 405 mg/mL (≈ 1400 mM).
Turning to `N=C(NCCCC(N)C(=O)O)NC1(O)NC(=O)C(NC(N)=O)N1` (stereo not shown) [Allatoin/arginine (1:1) compound (A)], in data set [3], the “Dissolved amount of allantoin component, 50% ethyl alcohol-water solution” value is reported as 9.4 wt.%; the “Dissolved amount of allantoin component, 50% isopropyl alcohol-water solution” value is listed as 4.6 wt.%; the “Dissolved amount of allantoin component, 50% methyl alcohol-water solution” value came to 20.2 wt.%; the “Dissolved amount of allantoin component, water” value is 28.2 wt.%. Further, in data set [4], the “pH of a saturated solution in water” value worked out at 8.5. Moreover, in data set [1], the “Solubility in 50% ethyl alcohol-water solution” value is listed as 19.8 wt.%, the “Solubility in 50% isopropyl alcohol-water solution” value is recorded as 9.9 wt.%, the “Solubility in 50% methyl alcohol-water solution” value amounted to 43.3 wt.% and the concentration in solution (solubility) came to 603 mg/mL (≈ 1810 mM).
